Test results: PMC12274840 (The Journal of Biological Chemistry, 2025)
In brackets after ≈: the same amount, converted by molar mass. Read-outs that look alike come from different tables or passages of the source.

Assays:
[1] = tested on: E. coli KA797 cells carrying BlaC position 105 library; format: cell-based, Escherichia coli; details: ampicillin; for Fi AMP AVG: average of replicates
[2] = tested on: E. coli KA797 cells carrying NmcA position 105 library; format: cell-based
[3] = tested on: E. coli KA797 cells carrying CTX-M-14 position 105 library; format: cell-based
[4] = tested on: E. coli KA797 cells carrying pUK21 with CTX-M-14 WT (Tat); assay: microbe, parasite or virus in culture; format: cell-based; details: Escherichia coli, antibiotic alone

CC1(C)S[C@@H]2[C@H](NC(=O)[C@H](N)c3ccccc3)C(=O)N2[C@H]1C(=O)O [ampicillin]
Fi AMP 2 ([1]; AA 105 Trp, replicate 2): 2.872
Fi AMP 3 ([1]; AA 105 Trp, replicate 3): 3.175
Significance (Fi AMP AVG) ([1]; AA 105 Tyr): +
Fi AMP AVG ([1]; AA 105 Tyr): 3.396
Fi AMP 1 ([1]; AA 105 Tyr, replicate 1): 3.695
Fi AMP 2 ([1]; AA 105 Tyr, replicate 2): 3.143
Fi AMP 3 ([1]; AA 105 Tyr, replicate 3): 3.349
Fi AMP AVG ([1]; AA 105 Val): -0.310
Fi AMP 1 ([1]; AA 105 Val, replicate 1): -0.429
Fi AMP 3 ([1]; AA 105 Val, replicate 3): -0.191
WT abs Fi 1 ([1]; WT (Ile 105) absolute fitness, replicate 1): -1.907
WT abs Fi 2 ([1]; WT (Ile 105) absolute fitness, replicate 2): -1.350
WT abs Fi 3 ([1]; WT (Ile 105) absolute fitness, replicate 3): -1.353
Fi AVG (average fitness of replicates) ([2]; NmcA AA 105 Ala): -0.604
Significance of average fitness ([2]; NmcA AA 105 Ala): -
Fi AVG (average fitness of replicates) ([2]; NmcA AA 105 Arg): -0.595
Significance of average fitness ([2]; NmcA AA 105 Arg): -
Fi AVG (average fitness of replicates) ([2]; NmcA AA 105 Asn): -0.193
Significance of average fitness ([2]; NmcA AA 105 Asn): -
Fi AVG (average fitness of replicates) ([2]; NmcA AA 105 Asp): -0.514
Significance of average fitness ([2]; NmcA AA 105 Asp): -
Fi AVG (average fitness of replicates) ([2]; NmcA AA 105 Cys): -0.572
Significance of average fitness ([2]; NmcA AA 105 Cys): -
Fi AVG (average fitness of replicates) ([2]; NmcA AA 105 Gln): -0.362
Significance of average fitness ([2]; NmcA AA 105 Gln): -
Fi AVG (average fitness of replicates) ([2]; NmcA AA 105 Glu): -0.554
Significance of average fitness ([2]; NmcA AA 105 Glu): -
Fi AVG (average fitness of replicates) ([2]; NmcA AA 105 Gly): -0.012
Fi AVG (average fitness of replicates) ([2]; NmcA AA 105 His): 0.000
Fi AVG (average fitness of replicates) ([2]; NmcA AA 105 Ile): -0.668
Significance of average fitness ([2]; NmcA AA 105 Ile): -
Fi AVG (average fitness of replicates) ([2]; NmcA AA 105 Leu): -0.515
Significance of average fitness ([2]; NmcA AA 105 Leu): -
Fi AVG (average fitness of replicates) ([2]; NmcA AA 105 Lys): -0.761
Significance of average fitness ([2]; NmcA AA 105 Lys): -
Fi AVG (average fitness of replicates) ([2]; NmcA AA 105 Met): -0.296
Significance of average fitness ([2]; NmcA AA 105 Met): -
Fi AVG (average fitness of replicates) ([2]; NmcA AA 105 Phe): -0.065
Fi AVG (average fitness of replicates) ([2]; NmcA AA 105 Pro): -0.462
Significance of average fitness ([2]; NmcA AA 105 Pro): -
Fi AVG (average fitness of replicates) ([2]; NmcA AA 105 Ser): -0.413
Significance of average fitness ([2]; NmcA AA 105 Ser): -
Fi AVG (average fitness of replicates) ([2]; NmcA AA 105 Thr): -0.905
Significance of average fitness ([2]; NmcA AA 105 Thr): -
Fi AVG (average fitness of replicates) ([2]; NmcA AA 105 Trp): 0.277
Significance of average fitness ([2]; NmcA AA 105 Trp): +
Fi AVG (average fitness of replicates) ([2]; NmcA AA 105 Tyr): 0.049
Fi AVG (average fitness of replicates) ([2]; NmcA AA 105 Val): -0.608
Significance of average fitness ([2]; NmcA AA 105 Val): -
WT abs Fi 1 (absolute fitness) ([2]; NmcA WT, replicate 1): 0.229
WT abs Fi 2 (absolute fitness) ([2]; NmcA WT, replicate 2): 0.425
Significance of average fitness ([3]; CTX-M-14 AA 105 Ala): -
Significance of average fitness ([3]; CTX-M-14 AA 105 Arg): -
Significance of average fitness ([3]; CTX-M-14 AA 105 Asn): -
Significance of average fitness ([3]; CTX-M-14 AA 105 Asp): -
Significance of average fitness ([3]; CTX-M-14 AA 105 Cys): -
Significance of average fitness ([3]; CTX-M-14 AA 105 Gln): -
Significance of average fitness ([3]; CTX-M-14 AA 105 Glu): -
Significance of average fitness ([3]; CTX-M-14 AA 105 Gly): -
Significance of average fitness ([3]; CTX-M-14 AA 105 His): -
Significance of average fitness ([3]; CTX-M-14 AA 105 Ile): -
Significance of average fitness ([3]; CTX-M-14 AA 105 Leu): -
Significance of average fitness ([3]; CTX-M-14 AA 105 Lys): -
Significance of average fitness ([3]; CTX-M-14 AA 105 Met): -
Significance of average fitness ([3]; CTX-M-14 AA 105 Pro): -
Significance of average fitness ([3]; CTX-M-14 AA 105 Ser): -
Significance of average fitness ([3]; CTX-M-14 AA 105 Thr): -
Significance of average fitness ([3]; CTX-M-14 AA 105 Val): -
WT abs Fi 2 (absolute fitness of wild type, Replicate 2) ([3]; CTX-M-14 WT (Tyr 105)): 0.605
MIC [4]: 1600 µg/mL (≈ 4.58 mM)
